Measured values from patent US20100298141A1, “SUBSTITUTED PYRIDINE N-OXIDE HERBICIDES” (E. I. DU PONT DE NEMOURS AND COMPANY, priority 2007, published 2010).

Legend:
mustard = experiment: Test F preemergence test; type: in vivo, Brassica nigra; conditions: scale 0 to 100
How it was run: (§1)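 Preemergence application to planted seeds, or postemergence to sugarcane plants; compound in non-phytotoxic solvent mix plus surfactant. Greenhouse, 14-21 days. Visual rating vs. controls.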

green foxtail = experiment: Test F preemergence test; type: in vivo, Setaria viridis; conditions: scale 0 to 100
How it was run: as §1

barnyardgrass [1] = experiment: Test F preemergence test; type: in vivo, Echinochloa crus-galli
How it was run: as §1

cocklebur = experiment: Test C pre-/postemergence test; type: in vivo, Xanthium strumarium
How it was run: (§2)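 Test chemicals were formulated with surfactant in a non-phytotoxic solvent and sprayed both on freshly planted seeds (preemergence) and on 1- to 4-leaf plants of 2–18 cm (postemergence). Flooded-paddy pots received compound directly into 3 cm of standing water, maintained for the test.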

kochia = experiment: Test C pre-/postemergence test; type: in vivo, Kochia scoparia
How it was run: as §2

common mallow = experiment: Test F preemergence test; type: in vivo, Malva sylvestris; conditions: scale 0 to 100
How it was run: as §1

Virginia dayflower = experiment: Test F preemergence test; type: in vivo, Commelina virginica; conditions: scale 0 to 100
How it was run: as §1

dallisgrass = experiment: Test F preemergence test; type: in vivo, Paspalum dilatatum; conditions: scale 0 to 100
How it was run: as §1

itchgrass = experiment: Test F preemergence test; type: in vivo, Rottboellia cochinchinensis; conditions: scale 0 to 100
How it was run: as §1

velvetleaf = experiment: Test C pre-/postemergence test; type: in vivo, Abutilon theophrasti
How it was run: as §2

broadleaf signalgrass = experiment: Test F preemergence test; type: in vivo, Brachiaria platyphylla; conditions: scale 0 to 100
How it was run: as §1

barnyardgrass [2] = experiment: Test A pre-/postemergence greenhouse test; type: in vivo, Echinochloa crus-galli; conditions: for Plant response rating, Barnyardgrass: 0 to 100 scale where 0 is no effect and 100 is complete control; for Barnyardgrass plant response rating: 0 to 100 scale
How it was run: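 Each test compound, dissolved in a non-phytotoxic solvent mixture with surfactant, was sprayed directly onto seeded soil (loam/sand blend) and, at the same moment, onto seedlings carrying one to two leaves. Around ten greenhouse days later, plants were rated visually for injury relative to untreated controls.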

annual bluegrass = experiment: Test F preemergence test; type: in vivo, Poa annua; conditions: scale 0 to 100
How it was run: as §1

field bindweed = experiment: Test F preemergence test; type: in vivo, Convolvulus arvensis; conditions: scale 0 to 100
How it was run: as §1

[3] = 62 g ai/ha, Preemergence, scale 0 to 100
[4] = 125 g ai/ha, preemergence, scale 0 (no effect) to 100 (complete control)
[5] = Preemergence, 31 g ai/ha, scale 0 to 100 (0 no effect, 100 complete control)
[6] = preemergence, 250 g ai/ha, scale 0 (no effect) to 100 (complete control)

CC(Oc1c(C[S+]([O-])c2ccc(Cl)c[n+]2[O-])c(C(F)(F)F)nn1C)C(F)(F)F (centres unmarked) [Compound 87]
98: Foxtail, Green plant response rating (green foxtail; 125 g ai/ha, preemergence)
90: Plant response rating, Black Mustard (mustard; Preemergence, 62 g ai/ha) | Barnyardgrass plant response rating (barnyardgrass [2]; Postemergence, 500 g ai/ha, 0 is no effect, 100 is complete control) | Barnyardgrass plant response rating (barnyardgrass [2]; Preemergence, 125 g ai/ha, 0 no effect, 100 complete control)
0: Plant response rating, Black Mustard (mustard; 16 g ai/ha, preemergence) | Cocklebur plant response rating (cocklebur; [3]) | Plant response rating, Cocklebur (cocklebur; [5]) | Plant response rating, Dallisgrass (dallisgrass; 16 g ai/ha, preemergence) | Plant response rating, Velvetleaf (velvetleaf; [5]) | Plant response rating, Signalgrass (broadleaf signalgrass; 16 g ai/ha, preemergence) | Plant response rating, Field Bindweed (field bindweed; 16 g ai/ha, preemergence) | Plant response rating, Field Bindweed (field bindweed; Preemergence, 31 g ai/ha)
15: Plant response rating, Signalgrass (broadleaf signalgrass; Preemergence, 31 g ai/ha)
40: Cocklebur plant response rating (cocklebur; [6]) | Field Bindweed plant response rating (field bindweed; 125 g ai/ha, preemergence)
75: Plant response rating, Barnyardgrass (barnyardgrass [1]; Preemergence, 31 g ai/ha, scale 0 to 100) | Kochia plant response rating (kochia; [3]) | Plant response rating, Mallow (common mallow; Preemergence, 31 g ai/ha)
5: Velvetleaf plant response rating (velvetleaf; [3])
100: Black Mustard plant response rating (mustard; 125 g ai/ha, preemergence) | Barnyardgrass plant response rating (barnyardgrass [1]; 125 g ai/ha, preemergence, scale 0 to 100) | Plant response rating, Barnyardgrass (barnyardgrass [1]; Preemergence, 62 g ai/ha, scale 0 to 100) | Mallow plant response rating (common mallow; 125 g ai/ha, preemergence) | Plant response rating, Mallow (common mallow; Preemergence, 62 g ai/ha) | Dayflower plant response rating (Virginia dayflower; 125 g ai/ha, preemergence) | Plant response rating, Dayflower (Virginia dayflower; Preemergence, 62 g ai/ha) | Plant response rating, Dayflower (Virginia dayflower; Preemergence, 31 g ai/ha) | Itchgrass plant response rating (itchgrass; 125 g ai/ha, preemergence) | Plant response rating, Itchgrass (itchgrass; Preemergence, 62 g ai/ha) | Plant response rating, Barnyardgrass (barnyardgrass [2]; Preemergence, 500 g ai/ha) | Bluegrass plant response rating (annual bluegrass; 125 g ai/ha, preemergence)
80: Plant response rating, Foxtail, Green (green foxtail; Preemergence, 62 g ai/ha) | Kochia plant response rating (kochia; [4]) | Dallisgrass plant response rating (dallisgrass; 125 g ai/ha, preemergence) | Plant response rating, Barnyardgrass (barnyardgrass [2]; Postemergence, 125 g ai/ha) | Plant response rating, Bluegrass (annual bluegrass; Preemergence, 62 g ai/ha)
65: Plant response rating, Foxtail, Green (green foxtail; Preemergence, 31 g ai/ha) | Plant response rating, Signalgrass (broadleaf signalgrass; Preemergence, 62 g ai/ha)
20: Cocklebur plant response rating (cocklebur; [4]) | Plant response rating, Field Bindweed (field bindweed; Preemergence, 62 g ai/ha)
85: Plant response rating, Itchgrass (itchgrass; Preemergence, 31 g ai/ha)
30: Plant response rating, Black Mustard (mustard; Preemergence, 31 g ai/ha)
35: Plant response rating, Foxtail, Green (green foxtail; 16 g ai/ha, preemergence) | Plant response rating, Dayflower (Virginia dayflower; 16 g ai/ha, preemergence) | Plant response rating, Itchgrass (itchgrass; 16 g ai/ha, preemergence) | Plant response rating, Bluegrass (annual bluegrass; 16 g ai/ha, preemergence)
60: Plant response rating, Barnyardgrass (barnyardgrass [1]; 16 g ai/ha, preemergence, scale 0 to 100 (0 no effect, 100 complete control)) | Plant response rating, Dallisgrass (dallisgrass; Preemergence, 62 g ai/ha)
50: Plant response rating, Kochia (kochia; [5]) | Plant response rating, Mallow (common mallow; 16 g ai/ha, preemergence) | Plant response rating, Dallisgrass (dallisgrass; Preemergence, 31 g ai/ha)
70: Velvetleaf plant response rating (velvetleaf; [4]) | Plant response rating, Bluegrass (annual bluegrass; Preemergence, 31 g ai/ha)
95: Kochia plant response rating (kochia; [6]) | Velvetleaf plant response rating (velvetleaf; [6]) | Signalgrass plant response rating (broadleaf signalgrass; 125 g ai/ha, preemergence)
